Measurements as given in ChEMBL document CHEMBL5137008, “Recent advances of antitumor shikonin/alkannin derivatives: A comprehensive overview focusing on structural classification, synthetic approaches, and mechanisms of action” (Eur J Med Chem, 2022).

Columns and labels:
[1] = Anticancer activity against human A875 cells assessed as inhibition of cell growth incubated for 72 hrs by MTT assay; format: functional, cell-based; conditions: A875, 72 h
[2] = test system: A549; experiment: Antiproliferative activity against human A549 cells assessed as inhibition of cell proliferation incubated for 24 hrs by CCK-8 assay; format: functional, cell-based; conditions: A549, 24 h
[3] = test system: MDA-MB-231; experiment: Antiproliferative activity against human MDA-MB-231 cells assessed as inhibition of cell growth incubated for 24 hrs in presence of foetal bovine serum by MTT assay; format: functional, cell-based; conditions: MDA-MB-231, 24 h
[4] = Anticancer activity against human A875 cells assessed as inhibition of cell growth incubated for 24 hrs by MTT assay; format: functional, cell-based; conditions: A875, 24 h
[5] = test system: MDA-MB-231; experiment: Antiproliferative activity against human MDA-MB-231 cells assessed as inhibition of cell growth incubated for 24 hrs by MTT assay; format: functional, cell-based; conditions: MDA-MB-231, 24 h
[6] = test system: MCF7; experiment: Anticancer activity against human MCF7 cells incubated for 72 hrs by MTT assay; format: functional, cell-based; conditions: MCF7, 72 h
[7] = test system: HepG2; experiment: Antiproliferative activity against human HepG2 cells assessed as reduction in cell viability incubated for 24 hrs by MTT assay; format: functional, cell-based; conditions: HepG2, 24 h
[8] = test system: A549; experiment: Anticancer activity against human A549 cells assessed as inhibition of cell proliferation incubated for 48 hrs by MTT assay; format: functional, cell-based; conditions: A549, 48 h
[9] = test system: A549; experiment: Anticancer activity against human A549 cells assessed as inhibition of cell growth incubated for 72 hrs by MTT assay; format: functional, cell-based; conditions: A549, 72 h
[10] = test system: MCF7; experiment: Antiproliferative activity against human MCF7 cells assessed as inhibition of cell proliferation incubated for 20 hrs by MTT assay; format: functional, cell-based; conditions: MCF7, 20 h
[11] = test system: MDA-MB-231; experiment: Antiproliferative activity against human MDA-MB-231 cells incubated for 24 hrs by MTT assay; format: functional, cell-based; conditions: MDA-MB-231, 24 h
[12] = test system: HCT-8; experiment: Antiproliferative activity against human HCT-8 cells assessed as inhibition of cell proliferation incubated for 24 hrs by CCK-8 assay; format: functional, cell-based; conditions: HCT-8, 24 h
[13] = test system: Fibroblast; experiment: Cytotoxicity against human skin fibroblast cells incubated for 72 hrs by MTT assay; format: functional, cell-based
[14] = test system: HeLa; experiment: Antiproliferative activity against human HeLa cells assessed as inhibition of cell proliferation incubated for 24 hrs by CCK-8 assay; format: functional, cell-based
[15] = test system: Ca9-22; experiment: Cytotoxicity against human Ca9-22 cells assessed as reduction in cell viability incubated for 48 hrs by MTT assay; format: functional, cell-based; conditions: Ca9-22, 48 h
[16] = Cytotoxicity against human MCF-10A assessed as inhibition of cell growth incubated for 24 hrs in presence of foetal bovine serum by MTT assay; format: toxicity, cell-based; conditions: MCF-10A cells
[17] = Cytotoxicity against African green monkey VERO cells assessed as inhibition of cell growth incubated for 24 hrs by MTT assay; format: toxicity, cell-based, Chlorocebus sabaeus
[18] = Cytotoxicity against human L02 cells assessed as inhibition of cell growth incubated for 24 hrs in presence of foetal bovine serum by MTT assay; format: toxicity, cell-based
[19] = test system: MDA-MB-468; experiment: Antiproliferative activity against human MDA-MB-468 cells assessed as inhibition of cell growth incubated for 24 hrs in presence of foetal bovine serum by MTT assay; format: functional, cell-based; conditions: MDA-MB-468, 24 h
[20] = test system: SW872; experiment: Anticancer activity against human SW872 cells assessed as inhibition of cell growth incubated for 72 hrs by MTT assay; format: functional, cell-based; conditions: SW872, 72 h
[21] = Cytotoxicity against human MCF-10A cells assessed as inhibition of cell proliferation incubated for 24 hrs by CCK-8 assay; format: toxicity, cell-based
[22] = test system: MCF7; experiment: Antiproliferative activity against human MCF7 cells assessed as inhibition of cell proliferation incubated for 24 hrs by MTT assay; format: functional, cell-based; conditions: MCF7, 24 h
[23] = Cytotoxicity against human L02 cells assessed as reduction in cell viability incubated for 24 hrs by MTT assay; format: toxicity, cell-based
[24] = test system: A549; experiment: Antiproliferative activity against human A549 cells assessed as inhibition of cell proliferation incubated for 20 hrs by MTT assay; format: functional, cell-based; conditions: A549, 20 h
[25] = Cytotoxicity against African green monkey Vero cells incubated for 24 hrs by MTT assay; format: toxicity, cell-based, Chlorocebus sabaeus
[26] = test system: Ca9-22; experiment: Cytotoxicity against human Ca9-22 cells assessed as reduction in cell viability incubated for 24 hrs by MTT assay; format: functional, cell-based; conditions: Ca9-22, 24 h
[27] = test system: A549; experiment: Antiproliferative activity against human A549 cells assessed as inhibition of cell growth incubated for 24 hrs by MTT assay; format: functional, cell-based; conditions: A549, 24 h
[28] = Antitubulin activity against bovine brain tubulin polymerization preincubated with compound followed by GTP addition by turbidimetry-based spectrophotometric method; parameters: species or system Bos taurus
[29] = test system: HeLa; experiment: cells; conditions: Homo sapiens, 24 h
[30] = test system: HeLa; experiment: Antiproliferative activity against human HeLa cells assessed as reduction in cell viability incubated for 24 hrs by MTT assay; format: functional, cell-based
[31] = test system: MG-63; experiment: Anticancer activity against human MG-63 cells assessed as inhibition of cell proliferation incubated for 48 hrs by MTT assay; format: functional, cell-based; conditions: MG-63, 48 h
[32] = test system: BT-474; experiment: Antiproliferative activity against human BT-474 cells assessed as inhibition of cell growth incubated for 24 hrs in presence of foetal bovine serum by MTT assay; format: functional, cell-based; conditions: BT-474, 24 h
[33] = test system: MCF7; experiment: Antiproliferative activity against human MCF7 cells assessed as inhibition of cell proliferation incubated for 24 hrs by CCK-8 assay; format: functional, cell-based; conditions: MCF7, 24 h
[34] = test system: B16-F10; experiment: Antiproliferative activity against mouse B16-F10 cells incubated for 24 hrs by MTT assay; format: functional, cell-based; conditions: B16-F10, 24 h
[35] = test system: HepG2; experiment: Antiproliferative activity against human HepG2 cells assessed as inhibition of cell proliferation incubated for 20 hrs by MTT assay; format: functional, cell-based; conditions: HepG2, 20 h
[36] = test system: HeLa; experiment: Antiproliferative activity against human HeLa cells assessed as inhibition of cell proliferation incubated for 20 hrs by MTT assay; format: functional, cell-based
[37] = test system: HeLa; experiment: Antiproliferative activity against human HeLa cells assessed as inhibition of cell proliferation incubated for 24 hrs by MTT assay; format: functional, cell-based
[38] = Cytotoxicity against human skin fibroblast cells assessed as reduction in cell viability incubated for 72 hrs by MTT assay; format: toxicity, cell-based
[39] = test system: HCT-15; experiment: Anticancer activity against human HCT-15 cells incubated for 72 hrs by MTT assay; format: functional, cell-based; conditions: HCT-15, 72 h
[40] = test system: A549; experiment: Antiproliferative activity against human A549 cells assessed as inhibition of cell growth incubated for 24 hrs in presence of foetal bovine serum by MTT assay; format: functional, cell-based; conditions: A549, 24 h
[41] = test system: SCC-4; experiment: Antiproliferative activity against human SCC-4 cells assessed as inhibition of cell proliferation incubated for 24 hrs by MTT assay; format: functional, cell-based; conditions: SCC-4, 24 h
[42] = Cytotoxicity against human L02 cells assessed as inhibition of cell growth incubated for 24 hrs by MTT assay; format: toxicity, cell-based
[43] = Antitubulin activity against bovine brain tubulin polymerization preincubated with compound followed by GTP addition and measured after 20 mins by turbidimetry-based spectrophotometric method; parameters: species or system Bos taurus
[44] = Inhibition of bovine brain tubulin polymerization preincubated with compound followed by GTP addition and measured after 20 mins by turbidimetry-based spectrophotometric method; parameters: species or system Bos taurus
[45] = test system: HepG2; experiment: Anticancer activity against human HepG2 cells assessed as inhibition of cell growth incubated for 24 hrs by MTT assay; format: functional, cell-based; conditions: HepG2, 24 h
[46] = test system: MDA-MB-231; experiment: Antiproliferative activity against human MDA-MB-231 cells assessed as inhibition of cell proliferation incubated for 24 hrs by CCK-8 assay; format: functional, cell-based; conditions: MDA-MB-231, 24 h

IC50 [2]: 7.73 µM | IC50 [3]: 2.88 µM | IC50 [5]: 8.98 µM | IC50 [6]: 2.11 µM | IC50 [7]: 1.29 µM | IC50 [8]: 5.06 µM | IC50 [9]: 1.8 µM | IC50 [10]: 1.03 µM | IC50 [11]: 108 µM | IC50 [12]: 9.2 µM | IC50 [14]: 11.1 µM | IC50 [19]: 3.28 µM | IC50 [20]: 0.76 µM | IC50 [22]: 4.99 µM | IC50 [24]: 2.51 µM | IC50 [27]: 10.4 µM | IC50 [28]: 16.8 µM | IC50 [29]: 4.8 µM | IC50 [30]: 2.82 µM | IC50 [32]: 5.74 µM | IC50 [33]: 9.32 µM | IC50 [34]: 17.9 µM | IC50 [35]: 0.92 µM | IC50 [36]: 3.11 µM | IC50 [37]: 5.75 µM | IC50 [39]: 0.94 µM | IC50 [40]: 11.7 µM | IC50 [43]: 15.2 µM | IC50 [44]: 30.2 µM | IC50 [45]: 0.42 µM | IC50 [46]: 7.62 µM
Structure (SMILES): CC(C)=CC[C@@H](O)C1=CC(=O)c2c(O)ccc(O)c2C1=O [SHIKONIN]
IC50 [1]: 0.58 µM | IC50 [4]: 0.46 µM | IC50 [13]: 1.24 µM | IC50 [15]: 12.8 µM | IC50 at 24 h [16]: 23.5 µM | IC50 at 24 h [17]: 6.76 µM | IC50 at 24 h [18]: 10.5 µM | IC50 at 24 h [21]: 20.9 µM | IC50 at 24 h [23]: 10.5 µM | IC50 at 24 h [25]: 6.76 µM | IC50 [26]: 13.6 µM | IC50 [31]: 5.67 µM | IC50 at 72 h [38]: 1.2 µM | IC50 [41]: 10.1 µM | IC50 at 24 h [42]: 3.26 µM
